The values below come from US10208060B2, “Inhibitors of HIF prolyl hydroxylase” (Merck Sharp & Dohme Corp., priority 2014, dated 2019).

pIC50: −log10 of the molar value.

This assay deals with human HIF-PHD2 (Homo sapiens (Human), UniProt Q9GZT9). Briefly: HIF-PHD2 inhibition assay (hydroxylation of HIF-1α peptide, time resolved fluorescence). Type of assay: biochemical. The conditions noted are these: FLAG-tagged full length PHD2; 0.2 μM 2-oxoglutarate, 0.5 μM HIF-1α peptide; 45 minutes at room temperature. As for the experimental part:
To each well of a 384-well plate, 1 μL of test compounds in DMSO (final concentration ranging from 0.3 nM to 10 uM) were added into 20 μl of assay buffer (50 mM Tris pH 7.4/0.01% Tween-20/0.1 mg/ml bovine serum albumin/10 μM ferrous sulfate/1 mM sodium ascorbate/20 μg/ml catalase) containing 0.15 μg/ml FLAG-tagged full length PHD2 expressed in and purified from baculovirus-infected Sf9 cells. […] Purif.

Chain of human HIF-PHD2 (Q9GZT9 whole entry): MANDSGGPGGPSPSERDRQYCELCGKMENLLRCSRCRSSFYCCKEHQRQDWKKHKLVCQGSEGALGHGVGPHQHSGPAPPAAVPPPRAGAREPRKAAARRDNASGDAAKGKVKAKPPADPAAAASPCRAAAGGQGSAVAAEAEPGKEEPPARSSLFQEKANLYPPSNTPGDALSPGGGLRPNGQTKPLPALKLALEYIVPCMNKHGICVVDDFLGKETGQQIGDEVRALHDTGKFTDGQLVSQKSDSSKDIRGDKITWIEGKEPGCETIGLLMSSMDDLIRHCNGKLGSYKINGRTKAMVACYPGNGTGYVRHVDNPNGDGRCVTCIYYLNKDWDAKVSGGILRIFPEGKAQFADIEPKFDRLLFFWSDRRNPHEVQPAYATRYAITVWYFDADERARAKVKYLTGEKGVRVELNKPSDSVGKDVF

Take `O=C(O)CNC(=O)c1c(O)c2c(n(-c3ccc(Br)cc3)c1=O)CSC2` [Example 11, 2-(1-(4-Bromophenyl)-4-hydroxy-2-oxo-1,2,5,7-tetrahydrothieno[3,4-b]pyridine-3-carboxamido)acetic acid]: the pIC50 (in general, −log10 of the IC50, conventionally taken in molar units) was 8.06.

In turn, `O=C(O)CNC(=O)c1c(O)c2c(n(-c3ccc(-c4ccc(OC(F)(F)F)cc4)cc3)c1=O)CSC2` [Example 12] had a pIC50 of 8.00.
